This passage reports DC50 and ΔT1/2 results from paper PMC6066642 (2018).

Test [1] relates to mutTel24FID (DNA, G4) TTTGGGTTAGGGTTAGGGTTAGGGA
The test is described as follows: fluorescent intercalator displacement. The note with it: K+ (10 mM KH2PO4); pH 5.7; thiazole orange 2 μM displaced.

Test [2] concerns mutTel24 (DNA, G4) TTGGGTTAGGGTTAGGGTTAGGGA
The test is described as follows: CD melting. The note with it: K+ (10 mM potassium phosphate); pH 5.7; 5 equivalents of compound, 10-15 μM DNA.

For test [3], the system named is hTeloC (DNA, i motif) CCCTAACCCTAACCCTAACCCT
The experiment in a line: CD melting. The note with it: Na+ (10 mM sodium phosphate); pH 5.7; 5 equivalents of compound, 10-15 μM DNA.

The test system of test [4] is hTeloCFID (DNA, i motif) TAACCCTAACCCTAACCCTAACCC
The experiment in a line: fluorescent intercalator displacement. The conditions noted are these: Na+ (10 mM NaH2PO4); pH 5.7; thiazole orange 2 μM displaced.

`O=C1c2c(O)ccc(O)c2C(=O)c2c(NCCNCCO)ccc(NCCNCCO)c21`: the DC50 was 0.95 ± 6.07E-03 μM in test [1] and 1.34 ± 6.99E-03 μM in test [4]. For the same molecule, the ΔT1/2 entry is “+4.5 ± 0.5 °C” in test [2] and -9.9 ± 0.5 °C in test [3].

For `COc1ccc2cc3[n+](cc2c1OC)CCc1cc2c(cc1-3)OCO2`, the DC50 was determined as 1.26 ± 7.22E-03 μM in test [1] and 1.46 ± 5.88E-03 μM in test [4]. Besides, the ΔT1/2 result was “+12.4 ± 0.5 °C” in test [2] and -0.8 ± 0.5 °C in test [3].

In the case of `C[n+]1cc(NC(=O)c2ccc3ccc4ccc(C(=O)Nc5cc6ccccc6[n+](C)c5)nc4c3n2)cc2ccccc21`, the results for the DC50 in test [1] and in test [4] were 0.39 ± 1.42E-03 μM and 0.95 ± 3.79E-03 μM, respectively. Also, the ΔT1/2 entry is “+14.4 ± 0.5 °C” in test [2] and -6.8 ± 0.5 °C in test [3].

Regarding `CN(C)c1ccc(Nc2c3ccc(NC(=O)CCN4CCCC4)cc3nc3cc(NC(=O)CCN4CCCC4)ccc23)cc1`, the DC50 came out at 0.50 ± 1.95E-03 μM in test [1] and 0.87 ± 8.08E-04 μM in test [4]. For the same molecule, the ΔT1/2 entry was “+8.9 ± 0.5 °C” in test [2] and -9.2 ± 0.5 °C in test [3].

As for `NCCOc1cc(C(=O)Nc2cc(OCCN)c3ccccc3n2)nc(C(=O)Nc2cc(OCCN)c3ccccc3n2)c1`, the values for the DC50 in test [1] and in test [4] were 9.42 ± 3.90E-02 μM and 18.02 ± 5.89E-02 μM, respectively. Further, the ΔT1/2 result in test [2] was “+8.8 ± 0.5 °C”; in test [3], “+0.8 ± 0.5 °C”.

Regarding `Cc1cc2c3c([n+](C)c4ccc(F)cc4c3c1)-c1cc(F)ccc1N2C`, the ΔT1/2 entry in test [2] was “+20.6 ± 0.5 °C”; in test [3], -0.3 ± 0.5 °C.
